Experimental findings from patent US20230087361A1, “USE OF DIANTHRONE COMPOUND IN PREPARATION OF MEDICAMENT FOR PREVENTION AND/OR TREATMENT OF MYOCARDIAL ISCHEMIC DISEASE AND RELATED DISEASE THEREOF” (National Institutes for Food and Drug Control, priority 2021, published 2023) are described below.

Assay [1] concerns mice with ISO-induced myocardial ischemia. The assay can be described thus: Serum myocardial enzyme CK-MB (ELISA) in mice with ISO-induced myocardial ischemia. It is filed as in vivo, Kunming mice. The following applies: ISO model mice; dianthrone 10 mg/kg intragastric or diltiazem 20 mg/kg intraperitoneal once a day for 10 days; serum 2 h after final ISO; n=7-10. The method, then:
(§1) Male Kunming mice were acclimatized and randomly divided into four groups: a blank control group, an ISO model group, an ISO+diltiazem 20 mg.kg^1 positive control group, and an ISO+dianthrone 10 mgkgi group. Mice in the dianthrone group were intragastrically given the corresponding dose of dianthrone once a day, those in the diltiazem group were intraperitoneally given once a day, and those in the blank control group and the model group were given the same dose of solvent (both of which were 10 mL. kg) for 10 consecutive days. On day 4 of administration, the mice in each group were injected subcutaneously with 40 mg.kg^1 ISO once; the concentration of ISO subcutaneous injection was adjusted to 20 mg.kg^- on days 5 to 10 of administration. All mice were modeled at 2 h after administration. On the final day, the animals were treated at 2 h after ISO administration and modeling. Animal weights were recorded during the experiment. […]
(§2) Assay for biomarker for myocardial injury and myocardial enzyme: The blood was drawn from the orbit of the mouse, let stand at room temperature for 2 h, and centrifuged at 3,500 rpm for 20 min to separate the serum. The serum levels of CK-MB and cTn-T were detected according to the ELISA kit instructions.
(In general: An ELISA detects its analyte on a solid surface through an enzyme-linked reagent.)

Assay [2] shares this test system. Briefly: Serum biomarker for myocardial injury cTn-T (ELISA) in mice with ISO-induced myocardial ischemia. It is filed as in vivo, Kunming mice. To be noted: ISO model mice; dianthrone 10 mg/kg intragastric or diltiazem 20 mg/kg intraperitoneal once a day for 10 days; serum 2 h after final ISO; n=7-10. As to the method: as §1, §2

`COc1ccc([C@@H]2Sc3ccccc3N(CCN(C)C)C(=O)[C@@H]2OC(C)=O)cc1` [Diltiazem, diltiazem]: the “CK-MB (serum)” value in assay [1] came out at 7.11 ± 1.63 ng/mL. Moreover, in assay [2], the “cTn-T (serum)” value is given as 273.93 ± 36.17 ng/L.
